{"source": "patent US20230107642A1", "about": "(Erasca, Inc., priority 2020, published 2023)"}
{"biological_target": "T1, K-Ras G12C (Homo sapiens, UniProt P01116, G12C)", "T1 construct": "This protein contained 188 amino acids in total, including an N-terminal 6-Histidine tag; made in house; host or cells: E. coli BL21", "experiment": "CAF assay (% CAF; method in Example 7, not in this part)", "format": "binding", "conditions": "10 uM compound, 1 h incubation", "units": {"% CAF @ 10 uM, 1h": "%"}}
{"compound": "C=CC(=O)N1CCN(c2nc(=O)n3c4c(c(-c5cc(Cl)c(F)cc5F)c(Cl)cc24)SC[C@@H]3CN2CCN(CC)CC2)[C@@H](C)C1", "note": "[Example 412, (3S)-7-((S)-4-acryloyl-2-methylpiperazin-1-yl)-9-chloro-10-(5-chloro-2,4-difluorophenyl)-3-((4-ethylpiperazin-1-yl)methyl)-2H-[1,4]thiazino[2,3,4-ij]quinazolin-5(3H)-one]", "% CAF @ 10 uM, 1h": 73.6}
{"compound": "C=CC(=O)N1CCN(c2nc(=O)n3c4c(c(-c5ccc(F)cc5F)c(Cl)cc24)SC[C@@H]3CC2CCN(CC)CC2)[C@@H](C)C1", "note": "[Example 413, (3S)-7-((S)-4-acryloyl-2-methylpiperazin-1-yl)-9-chloro-10-(2,4-difluorophenyl)-3-((1-ethylpiperidin-4-yl)methyl)-2H-[1,4]thiazino[2,3,4-ij]quinazolin-5(3H)-one]", "% CAF @ 10 uM, 1h": 86.6}
{"compound": "C=CC(=O)N1CCN(c2nc(=O)n3c4c(c(-c5ccc(F)cc5F)c(Cl)cc24)SC[C@@H]3CC2CCN(CC(F)F)CC2)[C@@H](C)C1", "note": "[Example 414, (3S)-7-((S)-4-acryloyl-2-methylpiperazin-1-yl)-9-chloro-3-((1-(2,2-difluoroethyl)piperidin-4-yl)methyl)-10-(2,4-difluorophenyl)-2H-[1,4]thiazino[2,3,4-ij]quinazolin-5(3H)-one]", "% CAF @ 10 uM, 1h": 92}
{"compound": "C=CC(=O)N1CCN(c2nc(=O)n3c4c(c(-c5ccc(F)cc5F)c(Cl)cc24)SC[C@@H]3CC2CCN(C3COC3)CC2)[C@@H](C)C1", "note": "[Example 415, (3S)-7-((S)-4-acryloyl-2-methylpiperazin-1-yl)-9-chloro-10-(2,4-difluorophenyl)-3-((1-(oxetan-3-yl)piperidin-4-yl)methyl)-2H-[1,4]thiazino[2,3,4-ij]quinazolin-5(3H)-one]", "% CAF @ 10 uM, 1h": 85.4}
{"compound": "C=CC(=O)N1CCN(c2nc(=O)n3c4c(c(-c5cc(F)c(F)cc5F)c(Cl)cc24)SC[C@@H]3CN2CCN(CC)CC2)[C@@H](C)C1", "note": "[Example 416, (3S)-7-((S)-4-acryloyl-2-methylpiperazin-1-yl)-9-chloro-3-((4-ethylpiperazin-1-yl)methyl)-10-(2,4,5-trifluorophenyl)-2H-[1,4]thiazino[2,3,4-ij]quinazolin-5(3H)-one]", "% CAF @ 10 uM, 1h": 91.2}
{"compound": "C=CC(=O)N1C2CN(c3nc(=O)n4c5c(c(-c6ccc(F)cc6F)c(C(F)(F)F)cc35)SCC4)CC1CC1(COC1)C2", "note": "[Example 417, 7-(9-acryloyl-7,9-diazaspiro[bicyclo[3.3.1]nonane-3,3′-oxetan]-7-yl)-10-(2,4-difluorophenyl)-9-(trifluoromethyl)-2,3-dihydro-5H-[1,4]thiazino[2,3,4-ij]quinazolin-5-one]", "% CAF @ 10 uM, 1h": 2}
{"compound": "C=C(F)C(=O)N1C2CC(=O)CC1CN(c1nc(=O)n3c4c(c(-c5ccc(F)cc5F)c(C(F)(F)F)cc14)SCC3)C2", "note": "[Example 418, 10-(2,4-difluorophenyl)-7-(9-(2-fluoroacryloyl)-7-oxo-3,9-diazabicyclo[3.3.1]nonan-3-yl)-9-(trifluoromethyl)-2,3-dihydro-5H-[1,4]thiazino[2,3,4-ij]quinazolin-5-one]", "% CAF @ 10 uM, 1h": 58}
{"compound": "C=CC(=O)N1CCN(c2nc(=O)n3c4c(c(-c5ccc(F)c6[nH]ncc56)c(Cl)cc24)SCC3)[C@@H](C)C1", "note": "[Example 419, 7-((S)-4-acryloyl-2-methylpiperazin-1-yl)-9-chloro-10-(7-fluoro-1H-indazol-4-yl)-2,3-dihydro-5H-[1,4]thiazino[2,3,4-ij]quinazolin-5-one]", "% CAF @ 10 uM, 1h": 54.3}
{"compound": "CN(C)C/C=C/C(=O)N1C2CC(=O)CC1CN(c1nc(=O)n3c4c(c(-c5ccc(F)cc5F)c(C(F)(F)F)cc14)SCC3)C2", "note": "[Example 420, (E)-10-(2,4-difluorophenyl)-7-(9-(4-(dimethylamino)but-2-enoyl)-7-oxo-3,9-diazabicyclo[3.3.1]nonan-3-yl)-9-(trifluoromethyl)-2,3-dihydro-5H-[1,4]thiazino[2,3,4-ij]quinazolin-5-one]", "% CAF @ 10 uM, 1h": 93}
{"compound": "C=CC(=O)N1CCN(c2nc(=O)n3c4c(c(-c5cc(F)c(F)cc5F)c(Cl)cc24)SC[C@@H]3CC2CCN(C3COC3)CC2)[C@@H](C)C1", "note": "[Example 421, (3S)-7-((S)-4-acryloyl-2-methylpiperazin-1-yl)-9-chloro-3-((1-(oxetan-3-yl)piperidin-4-yl)methyl)-10-(2,4,5-trifluorophenyl)-2H-[1,4]thiazino[2,3,4-ij]quinazolin-5(3H)-one]", "% CAF @ 10 uM, 1h": 85.1}
{"compound": "C=CC(=O)N1CCN(c2nc(=O)n3c4c(c(-c5ccc(F)cc5F)c(Cl)cc24)SC[C@@H]3CN2CCN(C3CC3)CC2)[C@@H](C)C1", "note": "[Example 422, (3S)-7-((S)-4-acryloyl-2-methylpiperazin-1-yl)-9-chloro-3((4-cyclopropylpiperazin-1-yl)methyl)-10-(2,4-difluorophenyl)-2H-[1,4]thiazino[2,3,4-ij]quinazolin-5(3H)-one]", "% CAF @ 10 uM, 1h": 84.2}
{"compound": "C=CC(=O)N1CCN(c2nc(=O)n3c4c(c(-c5ccc(F)cc5F)c(Cl)cc24)SC[C@@H]3CC2CCN(C)CC2)[C@@H](C)C1", "note": "[Example 423, (3S)-7-((S)-4-acryloyl-2-methylpiperazin-1-yl)-9-chloro-10-(2,4-difluorophenyl)-3-((1-methylpiperidin-4-yl)methyl)-2H-[1,4]thiazino[2,3,4-ij]quinazolin-5(3H)-one]", "% CAF @ 10 uM, 1h": 34.1}
{"compound": "C=CC(=O)N1CCN(c2nc(=O)n3c4c(c(-c5c(F)cc(F)cc5F)c(Cl)cc24)SC[C@H]3CN2CCN(CC)CC2)[C@@H](C)C1", "note": "[Example 424, (R)-7-((S)-4-acryloyl-2-methylpiperazin-1-yl)-9-chloro-3-((4-ethylpiperazin-1-yl)methyl)-10-(2,4,6-trifluorophenyl)-2H-[1,4]thiazino[2,3,4-ij]quinazolin-5(3H)-one]", "% CAF @ 10 uM, 1h": 13.9}
{"compound": "C=CC(=O)N1CCN(c2nc(=O)n3c4c(c(-c5ccc(F)cc5)c(C(F)(F)F)cc24)SC[C@@H]3CC2CCN(C3COC3)CC2)[C@@H](C)C1", "note": "[Example 425, (S)-7-((S)-4-acryloyl-2-methylpiperazin-1-fluorophenyl)-3-((1-(oxetan-3-yl)piperidin-4-yl)methyl)-9-(trifluoromethyl)-2H-[1,4]thiazino[2,3,4-ij]quinazolin-5(3H)-one]", "% CAF @ 10 uM, 1h": 94.7}
{"compound": "C=CC(=O)N1CCN(c2nc(=O)n3c4c(c(-c5cc(Cl)c(F)cc5F)c(Cl)cc24)SC[C@@H]3CC2CCN(C3COC3)CC2)[C@@H](C)C1", "note": "[Example 426, (3S)-7-((S)-4-acryloyl-2-methylpiperazin-1-yl)-9-chloro-10-(5-chloro-2,4-difluorophenyl)-3-((1-(oxetan-3-yl)piperidin-4-yl)methyl)-2H-[1,4]thiazino[2,3,4-ij]quinazolin-5(3H)-one]", "% CAF @ 10 uM, 1h": 82.8}
{"compound": "C=CC(=O)N1CCN(c2nc(=O)n3c4c(c(-c5ccc(F)cc5Cl)c(Cl)cc24)SCC3)[C@@H](C)C1", "note": "[Example 427, 7-((S)-4-acryloyl-2-methylpiperazin-1-yl)-9-chloro-10-(2-chloro-4-fluorophenyl)-2,3-dihydro-5H-[1,4]thiazino[2,3,4-ij]quinazolin-5-one]", "% CAF @ 10 uM, 1h": 63.5}
{"compound": "C=CC(=O)N1CCN(c2nc(=O)n3c4c(c(-c5ccc(F)cc5)c(C(F)(F)F)cc24)SC[C@@H]3CC2CCN(CC(F)F)CC2)[C@@H](C)C1", "note": "[Example 428, (S)-7-((S)-4-acryloyl-2-methylpiperazin-1-yl)-3-((1-(2,2-difluoroethyl)piperidin-4-yl)methyl)-10-(4-fluorophenyl)-9-(trifluoromethyl)-2H-[1,4]thiazino[2,3,4-ij]quinazolin-5(3H)-one]", "% CAF @ 10 uM, 1h": 79.6}
{"compound": "C=CC(=O)N1CCN(c2nc(=O)n3c4c(c(-c5ccc(F)cc5F)c(C(F)(F)F)cc24)S(=O)(=O)C[C@@H]3CC2CCN(CC(F)F)CC2)[C@@H](C)C1", "note": "[Example 429, (3S)-7-((S)-4-acryloyl-2-methylpiperazin-1-yl)-3-((1-(2,2-difluoroethyl)piperidin-4-yl)methyl)-10-(2,4-difluorophenyl)-9-(trifluoromethyl)-2H-[1,4]thiazino[2,3,4-ij]quinazolin-5(3H)-one 1,1-dioxide]", "% CAF @ 10 uM, 1h": 61}
{"compound": "C=CC(=O)N1CCN(c2nc(=O)n3c4c(c(-c5ccc(F)cc5)c(C(F)(F)F)cc24)SC[C@@H]3CN2CCn3c(nnc3C(F)(F)F)C2)[C@@H](C)C1", "note": "[Example 430, (S)-7-((S)-4-acryloyl-2-methylpiperazin-1-yl)-10-(4-fluorophenyl)-9-(trifluoromethyl)-3-((3-(trifluoromethyl)-5,6-dihydro-[1,2,4]triazolo[4,3-a]pyrazin-7(8H)-yl)methyl)-2H-[1,4]thiazino[2,3,4-ij]quinazolin-5(3H)-one]", "% CAF @ 10 uM, 1h": 90.9}
{"compound": "C=CC(=O)N1CCN(c2nc(=O)n3c4c(c(-c5ccc(F)cc5F)c(C(F)(F)F)cc24)SC[C@@H](O)C3)[C@@H](C)C1", "note": "[Example 431, (3S)-8-((S)-4-acryloyl-2-methylpiperazin-1-yl)-11-(2,4-difluorophenyl)-3-hydroxy-10-(trifluoromethyl)-3,4-dihydro-2H,6H-[1,4]thiazepino[2,3,4-ij]quinazolin-6-one]", "% CAF @ 10 uM, 1h": 90}
{"compound": "C=CC(=O)N1CCN(c2nc(=O)n3c4c(c(-c5ccc(F)cc5F)c(Cl)cc24)SC[C@H]3COC2CN(CC)C2)[C@@H](C)C1", "note": "[Example 432, (3R)-7-((S)-4-acryloyl-2-methylpiperazin-1-yl)-9-chloro-10-(2,4-difluorophenyl)-3-(((1-ethylazetidin-3-yl)oxy)methyl)-2,3-dihydro-5H-[1,4]thiazino[2,3,4-ij]quinazolin-5-one]", "% CAF @ 10 uM, 1h": 2.6}
{"compound": "C=CC(=O)N1CCN(c2nc(=O)n3c4c(c(-c5ccc(F)cc5F)c(Cl)cc24)SC2(CC2)C3)[C@@H](C)C1", "note": "[Example 433, 7′-((S)-4-acryloyl-2-methylpiperazin-1-yl)-9′-chloro-10′-(2,4-difluorophenyl)-3′H,5′H-spiro[cyclopropane-1,2′-[1,4]thiazino[2,3,4-ij]quinazolin]-5′-one]", "% CAF @ 10 uM, 1h": 25.3}
